Several values for one entry are separate records, joined by “and”; a condition that tells them apart may be missing. Equal values may be shown once.
Species on record: Rattus norvegicus
Assay: DrugMatrix - Regimen: Daily Repeat
Assay type: toxicity, organism-based, Sprague-Dawley
Parameters: regimen Daily Repeat, gender Male, age 6-8 weeks
Settings: in vivo, po, route oral GAVAGE, vehicle .5 % CMC; for ABSOLUTE BASOPHIL / ABSOLUTE EOSINOPHIL / ABSOLUTE LYMPHOCYTE / ABSOLUTE MONOCYTE / BASOPHIL / EOSINOPHIL / ERYTHROCYTE COUNT / HEMATOCRIT / HEMOGLOBIN / LEUKOCYTE COUNT / LYMPHOCYTE / MEAN CORPUSCULAR HEMOGLOBIN / MEAN CORPUSCULAR HEMOGLOBIN CONCENTRATION / MEAN CORPUSCULAR VOLUME / MONOCYTE / NEUTROPHIL / PLATELET COUNT / ABSOLUTE SEGMENTED NEUTROPHIL / NUCLEATED RED BLOOD CELLS: tissue Blood; for ALANINE AMINOTRANSFERASE / ALBUMIN / ALKALINE PHOSPHATASE / ASPARTATE AMINOTRANSFERASE / BLOOD UREA NITROGEN / CARBON DIOXIDE / CHLORIDE / CHOLESTEROL / CREATINE PHOSPHOKINASE / CREATININE / GLUCOSE / LACTATE DEHYDROGENASE / LIPASE / PHOSPHORUS / POTASSIUM / SODIUM / TOTAL BILIRUBIN / TOTAL PROTEIN / URIC ACID: tissue Plasma
[1] = 10 mg/kg, […], dose level Low, time 14 day
[2] = 100 mg/kg, 72 h, dose level High, time 3 day
[3] = 100 mg/kg, 120 h, dose level High, time 5 day
[4] = 100 mg/kg, […], dose level High, time 14 day

## CN(C)CCN(Cc1cccs1)c1ccccn1
[1]
  ABSOLUTE BASOPHIL: 83.3 cells/µL
  ABSOLUTE EOSINOPHIL: 66.7 cells/µL
  ABSOLUTE LYMPHOCYTE: 10000 cells/µL
  ABSOLUTE MONOCYTE: 240 cells/µL
  BASOPHIL: 0.53%
  EOSINOPHIL: 0.52%
  ERYTHROCYTE COUNT: 7.47 x10E6/uL
  HEMATOCRIT: 47.12%
  HEMOGLOBIN: 14.82 G/DL
  LEUKOCYTE COUNT: 12.98 x10E3/uL
  LYMPHOCYTE: 76.93%
  MEAN CORPUSCULAR HEMOGLOBIN: 19.85 pg
  MEAN CORPUSCULAR HEMOGLOBIN CONCENTRATION: 31.43 G/DL
  MEAN CORPUSCULAR VOLUME: 63.1 fL
  MONOCYTE: 1.83%
  NEUTROPHIL: 19.2%
  PLATELET COUNT: 1264.5 x10E3/uL
  ALANINE AMINOTRANSFERASE: 47.67 u/L
  ALBUMIN: 3.87 G/DL
  ALKALINE PHOSPHATASE: 477 u/L
  ASPARTATE AMINOTRANSFERASE: 81.33 u/L
  BLOOD UREA NITROGEN: 14.83 mg/dL
  CARBON DIOXIDE: 38.33 mmol/L
  CHLORIDE: 105.17 MEQ/L
  CHOLESTEROL: 68.67 mg/dL
  CREATINE PHOSPHOKINASE: 223.17 u/L
  CREATININE: 0.68 mg/dL
  GLUCOSE: 155.83 mg/dL
  LACTATE DEHYDROGENASE: 95.83 u/L
  LIPASE: 18.67 u/L
  PHOSPHORUS: 10.72 mg/dL
  POTASSIUM: 6.3 MEQ/L
  SODIUM: 151.83 MEQ/L
  TOTAL BILIRUBIN: 0.27 mg/dL
  TOTAL PROTEIN: 6.77 G/DL
  URIC ACID: 1.22 mg/dL
[2]
  ABSOLUTE BASOPHIL: 0 CELLS/uL
  ABSOLUTE EOSINOPHIL: 62.67 CELLS/uL
  ABSOLUTE LYMPHOCYTE: 11170 CELLS/uL
  ABSOLUTE MONOCYTE: 125.33 CELLS/uL
  ABSOLUTE SEGMENTED NEUTROPHIL: 1608.67 CELLS/uL
  BASOPHIL: 0%
  EOSINOPHIL: 0.33%
  ERYTHROCYTE COUNT: 5.22 x10E6/uL
  HEMATOCRIT: 32.67%
  HEMOGLOBIN: 12.17 G/DL
  LEUKOCYTE COUNT: 12.97 x10E3/uL
  LYMPHOCYTE: 81.67%
  MEAN CORPUSCULAR HEMOGLOBIN: 23.37 pg
  MEAN CORPUSCULAR HEMOGLOBIN CONCENTRATION: 37.27 G/DL
  MEAN CORPUSCULAR VOLUME: 62.6 fL
  MONOCYTE: 0.67%
  NEUTROPHIL: 17.33%
  NUCLEATED RED BLOOD CELLS: 0 /100WBC
  PLATELET COUNT: 1093.67 x10E3/uL
  ALANINE AMINOTRANSFERASE: 71.33 u/L
  ALBUMIN: 3.77 G/DL
  ALKALINE PHOSPHATASE: 555.67 u/L
  ASPARTATE AMINOTRANSFERASE: 110.67 u/L
  BLOOD UREA NITROGEN: 15.67 mg/dL
  CARBON DIOXIDE: 32.33 mmol/L
  CHLORIDE: 99.67 MEQ/L
  CHOLESTEROL: 134.33 mg/dL
  CREATINE PHOSPHOKINASE: 382 u/L
  CREATININE: 0.22 mg/dL
  GLUCOSE: 140 mg/dL
  LACTATE DEHYDROGENASE: 129.67 u/L
  LIPASE: 11.33 u/L
  PHOSPHORUS: 12.07 mg/dL
  POTASSIUM: 5.88 MEQ/L
  SODIUM: 143.37 MEQ/L
  TOTAL BILIRUBIN: 0.47 mg/dL
  TOTAL PROTEIN: 5.77 G/DL
  URIC ACID: 0.43 mg/dL
[3]
  ABSOLUTE SEGMENTED NEUTROPHIL: 1008.67 CELLS/uL
  BASOPHIL: 0.97% and 0%
  EOSINOPHIL: 0.55% and 0%
  ERYTHROCYTE COUNT: 7.33 x10E6/uL and 5.52 x10E6/uL
  HEMATOCRIT: 45.42% and 34.13%
  HEMOGLOBIN: 14.18 G/DL and 13.07 G/DL
  LEUKOCYTE COUNT: 20.78 x10E3/uL and 14.4 x10E3/uL
  LYMPHOCYTE: 80.47% and 90%
  MEAN CORPUSCULAR HEMOGLOBIN: 19.32 pg and 23.73 pg
  MEAN CORPUSCULAR HEMOGLOBIN CONCENTRATION: 31.2 G/DL and 38.33 G/DL
  MEAN CORPUSCULAR VOLUME: 61.95 fL and 61.97 fL
  MONOCYTE: 3.85% and 3%
  NEUTROPHIL: 12.68% and 7%
  NUCLEATED RED BLOOD CELLS: 0 /100WBC
  PLATELET COUNT: 1277.75 x10E3/uL and 1530.33 x10E3/uL
  ALANINE AMINOTRANSFERASE: 138.25 u/L and 130.33 u/L
  ALBUMIN: 3.45 G/DL and 4.23 G/DL
  ALKALINE PHOSPHATASE: 618 u/L and 531.33 u/L
  ASPARTATE AMINOTRANSFERASE: 321 u/L and 308.67 u/L
  BLOOD UREA NITROGEN: 15.75 mg/dL and 15.33 mg/dL
  CARBON DIOXIDE: 37 mmol/L and 36.67 mmol/L
  CHLORIDE: 104.75 MEQ/L and 97.67 MEQ/L
  CHOLESTEROL: 98.5 mg/dL and 113.67 mg/dL
  CREATINE PHOSPHOKINASE: 398.5 u/L and 603.33 u/L
  CREATININE: 0.5 mg/dL and 0.25 mg/dL
  GLUCOSE: 151.25 mg/dL and 120.33 mg/dL
  LACTATE DEHYDROGENASE: 162.5 u/L and 250.33 u/L
  LIPASE: 17 u/L and 9.67 u/L
  PHOSPHORUS: 11.03 mg/dL and 12.1 mg/dL
  POTASSIUM: 6.62 MEQ/L and 5.82 MEQ/L
  SODIUM: 151 MEQ/L and 142.77 MEQ/L
  TOTAL BILIRUBIN: 0.4 mg/dL and 0.37 mg/dL
  TOTAL PROTEIN: 5.72 G/DL and 6.2 G/DL
  URIC ACID: 1.07 mg/dL and 0.63 mg/dL
[4]
  ABSOLUTE BASOPHIL: 150 cells/µL
  ABSOLUTE EOSINOPHIL: 75 cells/µL
  ABSOLUTE LYMPHOCYTE: 12900 cells/µL
  ABSOLUTE MONOCYTE: 390 cells/µL
  BASOPHIL: 0.77%
  EOSINOPHIL: 0.5%
  ERYTHROCYTE COUNT: 8.39 x10E6/uL
  HEMATOCRIT: 49.5%
  HEMOGLOBIN: 15.85 G/DL
  LEUKOCYTE COUNT: 15.58 x10E3/uL
  LYMPHOCYTE: 82.28%
  MEAN CORPUSCULAR HEMOGLOBIN: 18.95 pg
  MEAN CORPUSCULAR HEMOGLOBIN CONCENTRATION: 32.1 G/DL
  MEAN CORPUSCULAR VOLUME: 59.02 fL
  MONOCYTE: 2.45%
  NEUTROPHIL: 12.85%
  PLATELET COUNT: 1440.5 x10E3/uL
  ALANINE AMINOTRANSFERASE: 70.83 u/L
  ALBUMIN: 3.47 G/DL
  ALKALINE PHOSPHATASE: 569.83 u/L
  ASPARTATE AMINOTRANSFERASE: 277.5 u/L
  BLOOD UREA NITROGEN: 17.17 mg/dL
  CARBON DIOXIDE: 33.83 mmol/L
  CHLORIDE: 106.33 MEQ/L
  CHOLESTEROL: 60.17 mg/dL
  CREATINE PHOSPHOKINASE: 264.5 u/L
  CREATININE: 0.7 mg/dL
  GLUCOSE: 134.5 mg/dL
  LACTATE DEHYDROGENASE: 165.67 u/L
  LIPASE: 22.2 u/L
  PHOSPHORUS: 11.25 mg/dL
  POTASSIUM: 6.93 MEQ/L
  SODIUM: 150.83 MEQ/L
  TOTAL BILIRUBIN: 0.65 mg/dL
  TOTAL PROTEIN: 5.93 G/DL
  URIC ACID: 1.82 mg/dL

Source: ChEMBL document CHEMBL3885881, “DrugMatrix”
